Data set [1] in a line: Clinical Trial 1: 22-week randomized, double-blind, placebo-controlled study with dose titration. The format is in vivo. Here is the method: A 22-week randomized, double-blind, placebo-controlled study with a dose titration period of up to 9 weeks was conducted. Sixty-one individuals were randomized 2:1 Compound 1 to placebo. Right Heart Catheterization (RHC) measurements were obtained prior to study Day 1 of the dose titration period and at Week 22. The following values were obtained and recorded: pulmonary artery pressure (PAP) (systolic, diastolic, and mean), heart rate (HR), right atrial pressure (RAP), pulmonary capillary wedge pressure (PCWP) right ventricular pressure (RVP) and cardiac output (CO), pulmonary vascular resistance (PVR), arterial and mixed venous oxygen saturation […] (if applicable). Systemic vascular resistance (SVR) was estimated from blood pressure measurements.
Primary efficacy endpoints for the study were: a) change from baseline in PVR after 22 weeks of treatment, and b) change from baseline in 6 MWD after 22 weeks of treatment. Compound 1 was administered as a capsule in 0.01, 0.02, 0.03, 0.04, and 0.10 mg dose strengths. The starting dose of Compound 1 was 0.01 mg twice daily. The dose of Compound 1 was titrated according to individual tolerability. If the initial dose was tolerated (0.01 mg twice daily), then the dose was increased once a week in the following fashion: 0.02 mg twice daily, 0.03 mg twice daily, 0.04 mg twice daily, 0.06 mg twice daily, 0.08 mg, 0.1 mg twice daily, 0.2 mg twice daily and 0.3 mg twice daily. The dose was optionally escalated to a possible maximum total daily dose of 0.6 mg (0.3 mg twice daily), pending tolerability.

Data set [2] can be described thus: Clinical Trial 2: randomized, double-blind, placebo-controlled study in individuals with severe Raynaud's. Type of data set: in vivo. The settings on record: titration scheme. The procedure: A randomized, double-blind, placebo-controlled study is conducted in individuals with severe Raynaud's. Individuals are administered Compound 1 using a titration scheme. Compound 1 is determined to be efficacious for the treatment and/or prevention of Raynaud's.

The conditions of data set [3]: intravenous; cited from earlier work.
The conditions of data set [4]: intravenous, over 9 weeks, cited from earlier work.
The conditions of data set [5]: oral, titrated to the highest tolerated dose; individuals with systemic sclerosis; cited from earlier work.
[6] abbreviates: after 22 weeks of treatment, capsule, titrated from 0.01 mg twice daily up to 0.3 mg twice daily.

For `O=C(O)COC[C@H]1CC[C@H](COC(=O)N(c2ccccc2)c2ccc(Cl)cc2)CC1` [Compound 1, 2-(((1r,4r)-4-(((4-chlorophenyl)(phenyl)carbamoyloxy)methyl)cyclohexyl)methoxy)acetic acid], the “adverse events observed in the study” value in data set [1] (22-week study, titrated up to 0.6 mg total daily dose) was “consistent with other prostacyclin treatments for the management of PAH”. For the same compound, in data set [1] (setting [6]), the “6-minute walk distance (6MWD)” value is “numerical improvement” and the “change from baseline in pulmonary vascular resistance (PVR) compared to placebo (primary endpoint)” value is given as “statistically significant change from baseline”. The “efficacy for the treatment and/or prevention of Raynaud's” value in data set [2] is given as “efficacious”.

Regarding `CCCCC[C@H](O)/C=C/[C@@H]1[C@H]2C/C(=C/CCCC(=O)O)O[C@H]2C[C@H]1O` [epoprostenol], in data set [3], the “frequency and duration of Raynaud phenomenon attacks” value is “reduced frequency and duration”; the “loss in clinical response, time after the last infusion” value is listed as 8-10 weeks.

Regarding `CC#CCC(C)[C@H](O)/C=C/[C@@H]1[C@H]2C/C(=C/CCCC(=O)O)C[C@H]2C[C@H]1O` (stereo partly drawn) [iloprost], in data set [4] (vs. 19.7% comparator), the improve severity score is 34.8%. In addition, the “reduce weekly Raynaud phenomenon attacks” value in data set [4] (vs. 22.2% comparator) is recorded as 39.1%.

As for `CC(C)N(CCCCOCC(=O)NS(C)(=O)=O)c1cnc(-c2ccccc2)c(-c2ccccc2)n1` [selexipag], in data set [5], the “primary efficacy endpoint: reduction in the number of Raynaud's phenomenon attacks per week versus placebo” value is “did not meet the primary efficacy endpoint”.

The record behind these values is US20200368190A1, “METHODS OF TREATMENT” (Arena Pharmaceuticals, Inc., priority 2017, published 2020).
